The structures appear in SMILES notation.

In the experiment the test system is candida cultures. Briefly: Heat-treated AmB placed on candida cultures, cleared zone. The format is cell-based, Candida albicans. Particulars: heat-treated at various temperatures, examined after 24 h; n=2. How it is done: FIG. 4 illustrates Candida albicans biomass assay: The antifungal properties of 3D printed PCL-PMMA was examined in a biomass assay a. To assess antifungal effects, 3D printed 1, 5 and 10 layered sample were incubated with C. albicans for 48 h and dry weight of their biofilm biomass was assessed. n=3, *p<0.05, T test. b. Electron microscopy of 1 (left), 5 (middle) and 10 (right) layered AmB containing PCL microspheres incorporated PMMA disc. c. AmB was heat-treated at various temperatures and placed on candida cultures and examined after 24 h for efficacy (left panel). Digital images were captured and the cleared zone was quantitated (right panel) n=2, *p<0.05, T test.

As to `C[C@@H]1[C@H](O)[C@@H](C)/C=C/C=C/C=C/C=C/C=C/C=C/C=C/[C@H](O[C@@H]2O[C@H](C)[C@@H](O)[C@H](N)[C@@H]2O)C[C@@H]2O[C@](O)(C[C@@H](O)C[C@@H](O)[C@H](O)CC[C@@H](O)C[C@@H](O)CC(=O)O[C@H]1C)C[C@H](O)[C@H]2C(=O)O` [AmB, Amphotericin B], the “anti-fungal effects after direct heat treatment” value was “reduced anti-fungal effects”.

For the origin of these results see patent publication US20220160488A1, “FUNCTIONALIZED PROSTHETIC INTERFACES FOR THE PREVENTION AND TREATMENT OF DENTAL CONDITIONS” (OPTIMED TECHNOLOGY, INC., priority 2019, published 2022).
